# Experimental data reported in patent EP0552612A2, “Methods for determining and isolating compounds which bind directly to nucleosolic proteins” (F. HOFFMANN-LA ROCHE AG, priority 1992, dated 1993).
# What was measured:
# [1] = system: retinoic acid receptors α, β or γ; test: Competitive binding with ³H-T-RA to nucleosol of RAR-transfected COS-1 cells; parameters: species or system human; details: concentrations as high as 1 µM; 5 nM ³H-T-RA, 4°C, 30 minutes
# Description: Competitive binding studies were performed as follows. COS-1 cells were transfected with the cDNAs encoding RARs α, β or γ in the expression vector pSG5 (described in Example 1). The cells were cultured for 72 hours and the nucleosol fraction isolated (14). Nucleosol fractions were incubated (14) at 4°C for 30 minutes with 5 nM ³H-T-RA with various concentrations of unlabeled 13-cis RA. Bound was separated from free radioactivity using PD10 columns as described in Example 1 above.
# [2] = target: T1, RARα (Homo sapiens, UniProt P10276); test: Displacement of radiolabel from nucleosol of COS-1 cells treated in culture with ³H-T-RA; details: excess unlabeled T-RA (10 µM), 4 hours at 4°C
# T1 sequence (P10276 1-462): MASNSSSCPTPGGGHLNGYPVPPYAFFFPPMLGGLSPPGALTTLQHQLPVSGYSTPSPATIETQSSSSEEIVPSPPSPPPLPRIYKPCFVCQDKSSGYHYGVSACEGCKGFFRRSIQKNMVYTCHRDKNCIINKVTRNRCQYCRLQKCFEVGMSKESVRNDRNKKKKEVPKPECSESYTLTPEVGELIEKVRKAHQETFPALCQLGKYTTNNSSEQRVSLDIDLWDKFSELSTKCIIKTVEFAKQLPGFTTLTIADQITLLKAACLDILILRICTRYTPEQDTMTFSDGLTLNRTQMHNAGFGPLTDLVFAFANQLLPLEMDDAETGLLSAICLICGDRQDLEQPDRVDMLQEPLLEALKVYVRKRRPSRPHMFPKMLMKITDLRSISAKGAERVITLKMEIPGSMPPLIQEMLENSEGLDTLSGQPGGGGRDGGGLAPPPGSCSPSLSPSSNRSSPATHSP
# [3] = target: T1, RARα; test: In vitro binding of ³H-T-RA to nucleosol of transfected COS-1 cells; details: nucleosol from RARα-transfected COS-1 cells; 10 nM ³H-T-RA, 2 hours at 4°C
smiles,measurement,setting,value
"CC1=C(/C=C/C(C)=C/C=C/C(C)=C\C(=O)O)C(C)(C)CCC1 [13-cis RA, 13-cis retinoic acid]",competition with ³H-T-RA for binding,[1],minimal competition for binding
"CC1=C(/C=C/C(C)=C/C=C/C(C)=C/C(=O)O)C(C)(C)CCC1 [T-RA, all-trans retinoic acid]",displacement of bound radiolabel,[2],displaces radioactivity bound in the RARα nucleosol
[3H]C(/C=C(C)/C=C/C1=C(C)CCCC1(C)C)=C([3H])\C(C)=C\C(=O)O [³H-T-RA],binding of ³H-T-RA,[3],considerable binding
